Several values for one entry are separate records, joined by “and”; a condition that tells them apart may be missing. Identical values can stand only once. Like-named read-outs stand apart in the source and are kept apart here.
How the values were obtained:
[1] = test system: human umbilical vein endothelial cells (HUVECs); assay: inhibition of capillary formation of HUVECs (matrigel); assay type: cell-based; conditions: 10 μg/ml; for inhibition at 10 µg/mL: Homo sapiens, HUVEC, read-out: inhibition rate (%) of capillary formation
Method: Thawing 10 mg/mL matrigel (BD Company, USA) stocked at −20° C. overnight at 4° C., diluting it with HUVEC culture medium at the ratio of 1:1; smearing 30 μl of the solution on a 96-well plate (Greiner Company, USA), placing the plate at a 37 incubator for 1 h of aggregation. Digesting the HUVECs with 0.2% ethylene diamine tetraacetic acid (EDTA) when they reached the logarithmic phase; collecting the cells and washing them with PBS buffer twice, and then resuspending the cells with blank HUVEC culture medium. Counting the cells under a microscope, adjusting the cell concentration to 1×10^5 cells/ml. Preparing the testing solution for all groups, and diluting with blank HUVEC culture medium to 100 μl. Seeding the cells into the 96-well plate, 100 μl for each well, adding also the testing solution into each well and incubating the cells in 5% CO2 at 37° C. After 6 h, 12 h, 24 h, 36 h, 48 h, 60 h of incubation, randomly choosing 5 FOVs for each dose, photographing and counting the cells; calculating the number of capillary structures at different doses and analyzing the inhibition effect of polypeptide II and polypeptide III on HUVECs' differentiating into capillaries. The inhibition rate of capillary formation was calculated in accordance with the following formula: […]
wherein Ntest is the number of capillary structures in the test groups while Ncontrol is the number of capillary structures in the negative control group.

melanoma B16F10 = assay: transplanted melanoma B16F10 in C57BL/6 black mice
Method: Hypodermically injecting polypeptides and other drugs into the left axillary region of mice from the experimental groups respectively while administering only equal quantity of physiological saline to the mice from the negative control group. The total medication period was 14 days, during which cyclophosphamide was administered once every other day, taxol once every three days, low-dose polypeptide twice a day and all other drugs once a day.

[2] = test system: human liver cancer SMMC-7721
[3] = test system: human endometrial cancer HHUA
[4] = test system: human rectal cancer Colo 320
[5] = 10 mg/kg/time, tail vein once every 3 days
[6] = positive control, tail vein once every 3 days
[7] = taxol 10 mg/kg/time, once every 3 days, tail vein injection

## CC(=O)O[C@H]1C(=O)[C@@]2(C)[C@H]([C@H](OC(=O)c3ccccc3)[C@]3(O)C[C@H](OC(=O)[C@H](O)[C@@H](NC(=O)c4ccccc4)c4ccccc4)C(C)=C1C3(C)C)[C@]1(OC(C)=O)CO[C@@H]1C[C@@H]2O [taxol, reference compound]
[1]; 6 h
  number of capillary structures (mean ± SD): 0.0 ± 0.0
  inhibition at 10 µg/mL: 100%
[1]; 12 h
  number of capillary structures (mean ± SD): 0.0 ± 0.0
  inhibition at 10 µg/mL: 100%
Melanoma B16F10; 10 mg/kg/time once every three days, hypodermic, 14 days
  tumor weight: 0.77 ± 0.62 g and 0.98 ± 0.30 g
Melanoma B16F10; mouse, in vivo
  body weight of animals, in words: greatly reduced the body weight
  toxic and side effects, in words: severer toxic and side effects
Human lung cancer H460; [5]
  tumor inhibition rate: 68.21%
  tumor weight: 0.28 ± 0.07 g
Human lung cancer H460; mouse, in vivo
  body weight of animals, in words: greatly reduced the body weight
  toxic and side effects, in words: more apparent toxic and side effects
[2]; [5]
  tumor inhibition rate: 78.10%
  tumor weight: 0.28 ± 0.05 g
[2]; mouse, in vivo
  body weight of animals, in words: greatly reduced the body weight
  toxic and side effects, in words: more apparent toxic and side effects
[3]; [5]
  tumor weight: 0.23 ± 0.07 g
[3]; mouse, in vivo
  body weight of animals, in words: greatly reduced the body weight
  toxic and side effects, in words: more apparent toxic and side effects
Human brain tumor SF763; mouse, in vivo
  body weight of animals, in words: greatly reduced the body weight
  toxic and side effects, in words: more apparent toxic and side effects
Human brain tumor SF763; [6]
  inhibition rate on tumor: 76.29%
Human brain tumor SF763; [7]
  tumor inhibition rate: 76.29%
  tumor weight: 0.28 ± 0.07 g
[4]; mouse, in vivo
  body weight of animals, in words: greatly reduced the body weight
  toxic and side effects, in words: more apparent toxic and side effects
[4]; [6]
  inhibition rate on tumor: 76.62%
[4]; [7]
  tumor inhibition rate: 76.62%
  tumor weight: 0.29 ± 0.07 g
